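48-hour exposure; five concentrations; linearly interpolated endpoints. The concentration for 50% growth inhibition is given as GI50.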 Activity calls are given as the source filed them. No stated cut-off is given here; in the data, active = GI50 up to about 1.1 µM and inactive = higher.
Experiments:
Experiment in all cases: growth of human tumour cells (NCI), 48 h
HCT-116 = tested on: HCT-116
HCT-15 = tested on: HCT-15
HOP-92 = tested on: HOP-92
HT-29 = tested on: HT-29
Hs-578T = tested on: Hs-578T
K562 = tested on: K562
KM12 = tested on: KM12
NCI/ADR-RES = tested on: NCI/ADR-RES
OVCAR-3 = tested on: OVCAR-3
OVCAR-8 = tested on: OVCAR-8
SF-268 = tested on: SF-268
SK-MEL-2 = tested on: SK-MEL-2
SK-MEL-5 = tested on: SK-MEL-5
SK-OV-3 = tested on: SK-OV-3
T47D = tested on: T47D
U-251 = tested on: U-251
UACC-257 = tested on: UACC-257
UO-31 = tested on: UO-31
A498 = tested on: A498

Measured: GI50

O=C1NCCCc2nonc21
> 100 µM: HCT-15
inactive: HCT-116 > 100 µM | HOP-92 > 100 µM | HT-29 > 100 µM | Hs-578T > 100 µM | K562 > 100 µM | KM12 > 100 µM | NCI/ADR-RES > 100 µM | OVCAR-3 > 100 µM | OVCAR-8 > 100 µM | SF-268 > 100 µM | SK-MEL-2 > 100 µM | SK-MEL-5 > 100 µM | SK-OV-3 > 100 µM | T47D > 100 µM | U-251 > 100 µM | UACC-257 > 100 µM | UO-31 > 100 µM

O=S(=O)(O)c1cc(/N=N/c2cccc3ccccc23)c(O)c2ncccc12
47.2 µM: HCT-15
inactive: A498 31.8 µM | HCT-116 34.9 µM | HOP-92 > 100 µM | HT-29 24.8 µM | K562 32.1 µM | KM12 80.2 µM | NCI/ADR-RES 65.2 µM | OVCAR-3 22.5 µM | OVCAR-8 > 100 µM | SK-MEL-2 82 µM | SK-MEL-5 31.1 µM | SK-OV-3 > 100 µM | T47D 55.7 µM | U-251 42 µM | UACC-257 64.4 µM

COc1ccc(/C=C2\CCC(C)c3c2nc(N)c(C#N)c3-c2ccc(OC)c(OC)c2)cc1OC (stereo not drawn)
inactive: HCT-116 8.81 µM | HT-29 6.25 µM | Hs-578T 9.16 µM | K562 12 µM | KM12 7.6 µM | NCI/ADR-RES 6.73 µM | OVCAR-3 9.29 µM | OVCAR-8 9.82 µM | SF-268 52.7 µM | SK-MEL-2 2.42 µM | SK-MEL-5 4.84 µM | SK-OV-3 18.5 µM | T47D 1.13 µM | U-251 9.44 µM | UACC-257 1.96 µM | UO-31 3.16 µM
5.71 µM: HCT-15

O=C1CCCCC1=C(I)I
inactive: A498 20.5 µM | HCT-116 16.6 µM | HOP-92 15.4 µM | Hs-578T 63 µM | K562 16 µM | KM12 15.5 µM | OVCAR-3 16.3 µM | OVCAR-8 33.9 µM | SF-268 19.4 µM | SK-MEL-2 16.7 µM | SK-MEL-5 17.9 µM | SK-OV-3 22.6 µM | T47D 15 µM | U-251 16.3 µM | UO-31 16.7 µM

Cc1nnc2sc(Cc3cnc(N)s3)nn12
> 100 µM: HCT-15
inactive: HCT-116 > 100 µM | HOP-92 > 100 µM | HT-29 > 100 µM | Hs-578T > 100 µM | K562 > 100 µM | KM12 > 100 µM | NCI/ADR-RES > 100 µM | OVCAR-8 > 100 µM | SF-268 > 100 µM | SK-MEL-2 > 100 µM | SK-MEL-5 > 100 µM | SK-OV-3 > 100 µM | T47D > 100 µM | U-251 > 100 µM | UACC-257 > 100 µM | UO-31 > 100 µM

CNC(=O)CN(CC(N)=O)C(=O)NC
inactive: A498 > 100 µM | HOP-92 > 100 µM | HT-29 > 100 µM | K562 > 100 µM | KM12 > 100 µM | OVCAR-3 > 100 µM | OVCAR-8 > 100 µM | SF-268 > 100 µM | SK-MEL-2 > 100 µM | SK-MEL-5 > 100 µM | SK-OV-3 > 100 µM | U-251 > 100 µM | UO-31 > 100 µM
> 100 µM: HCT-15

O=C(Nc1ccc2ccccc2c1)Nn1cnnc1
inactive: A498 > 100 µM | HCT-116 > 100 µM | HOP-92 > 100 µM | HT-29 > 100 µM | Hs-578T > 100 µM | K562 > 100 µM | KM12 > 100 µM | OVCAR-3 > 100 µM | OVCAR-8 > 100 µM | SF-268 > 100 µM | SK-MEL-2 > 100 µM | SK-MEL-5 > 100 µM | SK-OV-3 > 100 µM | T47D > 100 µM | U-251 > 100 µM | UACC-257 > 100 µM | UO-31 80.4 µM
> 100 µM: HCT-15

CC12CCC(=O)N1c1cncnc1N2 (stereo not drawn)
inactive: HCT-116 > 10 µM | HOP-92 > 10 µM | HT-29 > 10 µM | Hs-578T > 10 µM | K562 > 10 µM | KM12 > 10 µM | NCI/ADR-RES > 10 µM | OVCAR-3 > 10 µM | OVCAR-8 > 10 µM | SF-268 > 10 µM | SK-MEL-2 > 10 µM | SK-OV-3 > 10 µM | U-251 > 10 µM | UACC-257 > 10 µM | UO-31 > 10 µM
> 10 µM: HCT-15

C=C(C)[C@@H]1CCc2c(c(C)cc(O)c(=O)c2O)C1
active: HCT-116 0.156 µM | HOP-92 0.573 µM | K562 0.881 µM | NCI/ADR-RES 0.583 µM | OVCAR-8 0.706 µM | SK-MEL-5 0.564 µM | UO-31 0.92 µM
0.0838 µM: HCT-15
inactive: HT-29 3.01 µM | Hs-578T 2.16 µM | KM12 3.03 µM | SF-268 2.88 µM | SK-MEL-2 4.79 µM | SK-OV-3 1.49 µM | T47D 3.8 µM | U-251 1.3 µM | UACC-257 6.81 µM
